Results taken from patent US7563805B2, “Tri-, tetra-substituted-3-aminopyrrolidine derivative” (Daiichi Pharmaceutical Co., Ltd., priority 2005, dated 2009).
Converted amounts (≈) assume the structure as drawn. Marks after values point to notes of the source that are not given here.

What was measured:
[1] = test system: E. coli NIHJ; experiment: antibacterial activity (MIC), standard method of Japanese Society of Chemotherapy; conditions: Escherichia coli
[2] = test system: S. aureus, 87037 (LVFX-resistant MRSA); experiment: as above; conditions: Staphylococcus aureus, MRSA, S. aureus, 87037 (LVFX-resistant MRSA)
[3] = test system: S. epidermidis, 56500; experiment: as above; conditions: Staphylococcus epidermidis, 56500, S. epidermidis
[4] = test system: S. marscecens, 10100; experiment: antibacterial activity (MIC), standard method of Japanese Society of Chemotherapy
[5] = test system: E. faecalis, ATCC 19433; experiment: as above; conditions: Enterococcus faecalis, ATCC19433, E. faecalis
[6] = test system: S. pneumoniae, J24 (penicillin-intermediate resistant bacteria); experiment: as above; conditions: Streptococcus pneumoniae
[7] = target: hERG K+ channel (Homo sapiens, UniProt Q12809); experiment: hERG-K^+ channel blocking effect
[8] = test system: P. aeruginosa, 32104; experiment: antibacterial activity (MIC), standard method of Japanese Society of Chemotherapy; conditions: Pseudomonas aeruginosa
[9] = test system: P. vulgaris, 08601; experiment: as above; conditions: Proteus vulgaris, 08601, P. vulgaris
[10] = test system: P. aeruginosa, 32121; experiment: as above; conditions: Pseudomonas aeruginosa
[11] = test system: S. aureus, 209P; experiment: as above; conditions: Staphylococcus aureus
[12] = potential convulsant activity upon intracisternal administration, with and without 4-biphenyl acetic acid (BPAA); conditions: 5 μg/5 μL/mouse i. cist
Protocol: The potential convulsant activity upon intracisternal administration to mouse was also evaluated for the concomitant and administration with 4-biphenyl acetic acid (BPAA: an active metabolite of fenbufen) and in the absence of such concomitant administration. The evaluation was conducted by using 4 week old male Slc:ddY mice (6 animals per group) and intracisternally administering the test substance at a dose of 5 μg/5 μL/mouse (solvent, 0.5% lactic acid). Monitoring of the animals for the convulsion and death was started immediately after the administration and continued to 30 minutes after the administration. When used concomitantly with the BPAA, BPAA was suspended in 5% CMC, and 400 mg/kg was orally administered at a solution amount of 10 mL/kg, and the test substance was intracisternally administered 30 minutes after the BPAA.

Chain of hERG K+ channel (Q12809 whole entry): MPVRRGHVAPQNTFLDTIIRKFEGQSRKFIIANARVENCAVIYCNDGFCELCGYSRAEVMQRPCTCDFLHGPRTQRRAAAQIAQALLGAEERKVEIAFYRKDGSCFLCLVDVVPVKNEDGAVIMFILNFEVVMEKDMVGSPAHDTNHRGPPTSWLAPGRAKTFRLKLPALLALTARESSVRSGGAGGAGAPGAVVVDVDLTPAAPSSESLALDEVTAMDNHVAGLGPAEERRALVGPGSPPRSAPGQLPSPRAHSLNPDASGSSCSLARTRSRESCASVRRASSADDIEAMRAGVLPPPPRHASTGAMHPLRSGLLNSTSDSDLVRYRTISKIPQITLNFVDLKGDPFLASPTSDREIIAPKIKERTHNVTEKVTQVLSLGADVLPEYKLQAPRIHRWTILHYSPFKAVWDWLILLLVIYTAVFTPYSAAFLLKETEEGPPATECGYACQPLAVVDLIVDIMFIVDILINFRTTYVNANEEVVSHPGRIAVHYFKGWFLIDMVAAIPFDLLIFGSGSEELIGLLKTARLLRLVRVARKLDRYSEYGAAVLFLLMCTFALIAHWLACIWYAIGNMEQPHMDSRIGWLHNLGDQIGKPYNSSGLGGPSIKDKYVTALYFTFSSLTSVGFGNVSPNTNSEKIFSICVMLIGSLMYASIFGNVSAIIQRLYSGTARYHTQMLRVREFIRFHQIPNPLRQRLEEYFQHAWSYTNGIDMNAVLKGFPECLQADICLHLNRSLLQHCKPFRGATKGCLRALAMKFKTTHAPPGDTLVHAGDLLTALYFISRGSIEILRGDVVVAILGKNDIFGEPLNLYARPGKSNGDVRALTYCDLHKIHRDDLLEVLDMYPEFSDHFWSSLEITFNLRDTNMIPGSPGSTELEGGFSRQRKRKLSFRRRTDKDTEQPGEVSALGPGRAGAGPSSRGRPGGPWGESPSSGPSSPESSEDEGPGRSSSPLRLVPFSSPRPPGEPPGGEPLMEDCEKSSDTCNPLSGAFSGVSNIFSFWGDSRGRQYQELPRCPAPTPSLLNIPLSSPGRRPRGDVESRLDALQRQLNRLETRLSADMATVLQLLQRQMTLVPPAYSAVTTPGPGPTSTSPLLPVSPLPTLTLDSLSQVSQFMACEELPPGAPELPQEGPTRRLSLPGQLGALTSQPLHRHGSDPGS

SMILES: Cc1c(N2C[C@H](CF)[C@](C)(N)C2)c(F)cc2c(=O)c(C(=O)O)cn([C@@H]3C[C@@H]3F)c12 [Example 22, 7-[(3S,4S)-3-Amino-4-fluoromethyl-3-methylpyrrolidin-1-yl]-6-fluoro-1-[(1R,2S)-2-fluoro-1-cyclopropyl]-8-methyl-1,4-dihydro-4-oxoquinoline-3-carboxylic acid]
- MIC [1]: 0.012 µg/mL (≈ 0.0293 µM)
- MIC [2]: 0.78 µg/mL (≈ 1.91 µM)
- MIC [3]: 0.05 µg/mL (≈ 0.122 µM)
- melting point: 135 to 137 °C
- MIC [4]: 0.1 µg/mL (≈ 0.244 µM)
- MIC [5]: 0.2 µg/mL (≈ 0.489 µM)
- MIC [6]: 0.1 µg/mL (≈ 0.244 µM)
- inhibition at 30 µM [7]: -1.3 ± 10.1%
- inhibition at 100 µM [7]: -0.6 ± 7.9%
- inhibition at 300 µM [7]: 21.5 ± 6.9%
- MIC [8]: 0.39 µg/mL (≈ 0.953 µM)
- MIC [9]: 0.012 µg/mL (≈ 0.0293 µM)
- MIC [10]: 0.1 µg/mL (≈ 0.244 µM)
- MIC [11]: 0.025 µg/mL (≈ 0.0611 µM)

SMILES: C[C@H]1COc2c(N3CC(C)(N)C4(CC4)C3)c(F)cc3c(=O)c(C(=O)O)cn1c23 (stereo partly drawn) [Example 16, (3S)-10-(7-Amino-7-methyl-5-azaspiro[2.4]heptane-5-yl)-9-fluoro-2,3-dihydro-3-methyl-7-oxo-7H-pyrido[1,2,3-de][1,4]benzoxazine-6-carboxylic acid]
- MIC [1]: 0.012 µg/mL (≈ 0.031 µM)
- MIC [2]: 3.13 µg/mL (≈ 8.08 µM)
- MIC [3]: 0.1 µg/mL (≈ 0.258 µM)
- melting point: 268 to 270 °C
- MIC [4]: 0.1 µg/mL (≈ 0.258 µM)
- MIC [5]: 0.39 µg/mL (≈ 1.01 µM)
- MIC [6]: 0.2 µg/mL (≈ 0.516 µM)
- MIC [8]: 0.1 µg/mL (≈ 0.258 µM)
- MIC [9]: 0.006 µg/mL (≈ 0.0155 µM)
- MIC [10]: 0.05 µg/mL (≈ 0.129 µM)
- MIC [11]: 0.025 µg/mL (≈ 0.0645 µM)

SMILES: O=C(O)c1cn(C2CC2)c2cc(N3CCNCC3)c(F)cc2c1=O [CPFX, ciprofloxacin, reference compound]
- MIC [1]: ≤ 0.003 µg/mL
- MIC [2]: > 6.25 µg/mL
- MIC [3]: 0.2 µg/mL (≈ 0.604 µM)
- MIC [4]: 0.025 µg/mL (≈ 0.0754 µM)
- MIC [5]: 0.78 µg/mL (≈ 2.35 µM)
- MIC [6]: 0.39 µg/mL (≈ 1.18 µM)
- MIC [8]: 0.05 µg/mL (≈ 0.151 µM)
- MIC [9]: ≤ 0.003 µg/mL
- MIC [10]: 0.025 µg/mL (≈ 0.0754 µM)
- number of dead animals ([12]; (with BPAA 400 mg/kg oral, 30 minutes before)): 6/6**^## (6/6**^##)
- number of dead animals ([12]; (without BPAA)): 0/6 (0/6)
- MIC [11]: 0.1 µg/mL (≈ 0.302 µM)

SMILES: Cc1c(N2CC3(CC3)[C@](C)(N)C2)ccc2c(=O)c(C(=O)O)cn(C3CC3)c12 [Example 30, 7-[(7S)-7-Amino-7-methyl-5-azaspiro[2.4]heptan-5-yl]-1-cyclopropyl-8-methyl-1,4-dihydro-4-oxoquinoline-3-carboxylic acid]
- MIC [1]: 0.006 µg/mL (≈ 0.0163 µM)
- MIC [2]: 1.56 µg/mL (≈ 4.25 µM)
- MIC [3]: 0.2 µg/mL (≈ 0.544 µM)
- melting point: 227 to 230 °C
- MIC [4]: 0.1 µg/mL (≈ 0.272 µM)
- MIC [5]: 0.39 µg/mL (≈ 1.06 µM)
- MIC [6]: 0.2 µg/mL (≈ 0.544 µM)
- MIC [8]: 0.2 µg/mL (≈ 0.544 µM)
- MIC [9]: 0.025 µg/mL (≈ 0.068 µM)
- MIC [10]: 0.05 µg/mL (≈ 0.136 µM)
- MIC [11]: 0.05 µg/mL (≈ 0.136 µM)

SMILES: COc1c(N2C[C@H](CF)[C@](C)(N)C2)c(F)cc2c(=O)c(C(=O)O)cn(C3CC3)c12 [Example 21, 7-[(3S,4S)-3-Amino-4-fluoromethyl-3-methylpyrrolidin-1-yl]-1-cyclopropyl-6-fluoro-8-methoxy-1,4-dihydro-4-oxoquinoline-3-carboxylic acid]
- MIC [1]: 0.012 µg/mL (≈ 0.0295 µM)
- MIC [2]: 0.78 µg/mL (≈ 1.91 µM)
- MIC [3]: 0.1 µg/mL (≈ 0.245 µM)
- melting point: 226 to 229 °C
- MIC [4]: 0.2 µg/mL (≈ 0.491 µM)
- MIC [5]: 0.2 µg/mL (≈ 0.491 µM)
- MIC [6]: 0.1 µg/mL (≈ 0.245 µM)
- MIC [8]: 0.78 µg/mL (≈ 1.91 µM)
- MIC [9]: 0.05 µg/mL (≈ 0.123 µM)
- MIC [10]: 0.2 µg/mL (≈ 0.491 µM)
- MIC [11]: 0.025 µg/mL (≈ 0.0614 µM)

SMILES: Cc1c(N2CC(F)[C@](C)(N)C2)c(F)cc2c(=O)c(C(=O)O)cn([C@@H]3C[C@@H]3F)c12 (single isomer, unassigned) [Example 27]
- MIC [1]: 0.006 µg/mL (≈ 0.0152 µM)
- MIC [2]: 0.39 µg/mL (≈ 0.986 µM)
- MIC [3]: 0.05 µg/mL (≈ 0.126 µM)
- melting point: 215 to 217 °C
- MIC [4]: 0.1 µg/mL (≈ 0.253 µM)
- MIC [5]: 0.2 µg/mL (≈ 0.506 µM)
- MIC [6]: 0.1 µg/mL (≈ 0.253 µM)
- inhibition at 30 µM [7]: -1.8 ± 6.8%
- inhibition at 100 µM [7]: 0.6 ± 8%
- inhibition at 300 µM [7]: 8.9 ± 11%
- MIC [8]: 0.39 µg/mL (≈ 0.986 µM)
- MIC [9]: 0.006 µg/mL (≈ 0.0152 µM)
- MIC [10]: 0.1 µg/mL (≈ 0.253 µM)
- MIC [11]: 0.012 µg/mL (≈ 0.0304 µM)

SMILES: COc1c(N2CC(CF)C(C)(N)C2)c(F)cc2c(=O)c(C(=O)O)cn([C@@H]3C[C@@H]3F)c12 (single isomer, unassigned) [Example 8, 7-[(3R*,4S*)-3-Amino-4-fluoromethyl-3-methylpyrrolidin-1-yl]-6-fluoro-1-[(1R,2S)-2-fluorocyclopropyl]-8-methoxy-1,4-dihydro-4-oxoguinoline-3-carboxylic acid]
- MIC [1]: 0.012 µg/mL (≈ 0.0282 µM)
- MIC [2]: 0.78 µg/mL (≈ 1.83 µM)
- MIC [3]: 0.1 µg/mL (≈ 0.235 µM)
- melting point: 186 to 189 °C
- MIC [4]: 0.2 µg/mL (≈ 0.47 µM)
- MIC [5]: 0.2 µg/mL (≈ 0.47 µM)
- MIC [6]: 0.1 µg/mL (≈ 0.235 µM)
- inhibition at 30 µM [7]: 1.5 ± 1.8%
- inhibition at 100 µM [7]: 2.1 ± 2.3%
- inhibition at 300 µM [7]: 2.3 ± 7.3%
- MIC [8]: 0.78 µg/mL (≈ 1.83 µM)
- MIC [9]: 0.025 µg/mL (≈ 0.0588 µM)
- MIC [10]: 0.2 µg/mL (≈ 0.47 µM)
- MIC [11]: 0.025 µg/mL (≈ 0.0588 µM)

SMILES: C=C1CN(c2c(F)cc3c(=O)c(C(=O)O)cn([C@@H]4C[C@@H]4F)c3c2OC)C[C@]1(C)N [Example 17, 7-[(3R)-3-Amino-3-methyl-4-methylenepyrrolidine-1-yl]-6-fluoro-1-[(1R,2S)-2-fluorocyclopropyl]-8-methoxy-1,4-dihydro-4-oxoquinoline-3-carboxylic acid]
- MIC [1]: 0.006 µg/mL (≈ 0.0148 µM)
- MIC [2]: 0.39 µg/mL (≈ 0.962 µM)
- MIC [3]: 0.1 µg/mL (≈ 0.247 µM)
- melting point: 236 to 239 °C (dec.)
- MIC [4]: 0.1 µg/mL (≈ 0.247 µM)
- MIC [5]: 0.2 µg/mL (≈ 0.493 µM)
- MIC [6]: 0.1 µg/mL (≈ 0.247 µM)
- MIC [8]: 0.39 µg/mL (≈ 0.962 µM)
- MIC [9]: 0.012 µg/mL (≈ 0.0296 µM)
- MIC [10]: 0.1 µg/mL (≈ 0.247 µM)
- MIC [11]: 0.025 µg/mL (≈ 0.0617 µM)

SMILES: Cc1c(N2CC3(CC3)[C@](C)(N)C2)ccc2c(=O)c(C(=O)O)cn([C@@H]3C[C@@H]3F)c12 [Example 29, 7-[(7S)-7-Amino-7-methyl-5-azaspiro[2.4]heptan-5-yl]-1-[(1R,2S)-2-fluorocyclopropyl]-8-methyl-1,4-dihydro-4-oxoquinoline-3-carboxylic acid]
- MIC [1]: 0.05 µg/mL (≈ 0.13 µM)
- MIC [2]: 3.13 µg/mL (≈ 8.12 µM)
- MIC [3]: 0.2 µg/mL (≈ 0.519 µM)
- melting point: 157 to 159 °C
- MIC [4]: 0.2 µg/mL (≈ 0.519 µM)
- MIC [5]: 0.78 µg/mL (≈ 2.02 µM)
- MIC [6]: 0.39 µg/mL (≈ 1.01 µM)
- MIC [8]: 0.2 µg/mL (≈ 0.519 µM)
- MIC [9]: 0.025 µg/mL (≈ 0.0649 µM)
- MIC [10]: 0.1 µg/mL (≈ 0.259 µM)
- MIC [11]: 0.05 µg/mL (≈ 0.13 µM)

SMILES: C=C1CN(c2c(F)cc3c(=O)c(C(=O)O)cn([C@@H]4C[C@@H]4F)c3c2OC)C[C@@]1(C)N [Example 15, 7-[(3S)-3-Amino-3-methyl-4-methylenepyrrolidine-1-yl]-6-fluoro-1-[(1R,2S)-2-fluorocyclopropyl]-8-methoxy-1,4-dihydro-4-oxoquinoline-3-carboxylic acid]
- MIC [1]: 0.012 µg/mL (≈ 0.0296 µM)
- MIC [2]: 0.78 µg/mL (≈ 1.92 µM)
- MIC [3]: 0.1 µg/mL (≈ 0.247 µM)
- melting point: 100 to 102 °C
- MIC [4]: 0.2 µg/mL (≈ 0.493 µM)
- MIC [5]: 0.2 µg/mL (≈ 0.493 µM)
- MIC [6]: 0.1 µg/mL (≈ 0.247 µM)
- MIC [8]: 0.39 µg/mL (≈ 0.962 µM)
- MIC [9]: 0.025 µg/mL (≈ 0.0617 µM)
- MIC [10]: 0.2 µg/mL (≈ 0.493 µM)
- MIC [11]: 0.05 µg/mL (≈ 0.123 µM)
